25 molecules from PubChem BioAssay AID330 (DTP/NCI, 2004) can be followed below.

The structures appear in SMILES notation. “And” between values parts separate entries of the source, which are not always exact repeats. Equal values may be shown once. Toxic doses and inconclusive results are not listed.

In the experiment the test system is P388 leukemia ip, CD2F1 mice, survival T/C. The experiment is described as follows: NCI In Vivo Anticancer Drug Screen. Data for tumor model P388 Leukemia (intraperitoneal) in CD2F1 (CDF1) mice. The conditions noted are these: endpoint: median survival time, higher = longer survival. The method in brief: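 Mice carrying the transplanted tumor received test compound or vehicle. Survival was recorded in each group, and the value is the treated-group measurement divided by that of the vehicle-treated control group.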

[1] abbreviates: dose: 50.0 mg/kg/injection, schedule: Q01DX009 (ip), vehicle: Klucel (hydroxypropylcellulose) (HPC).
Where [2] appears, read: dose: 100.0 mg/kg/injection, schedule: Q01DX009 (ip), vehicle: Klucel (hydroxypropylcellulose) (HPC).
[3] abbreviates: dose: 200.0 mg/kg/injection, schedule: Q01DX009 (ip), vehicle: Klucel (hydroxypropylcellulose) (HPC).
Setting [4] is: dose: 100.0 mg/kg/injection, schedule: Q04DX003 (ip), vehicle: saline.
[5] abbreviates: dose: 200.0 mg/kg/injection, schedule: Q04DX003 (ip), vehicle: saline.
Setting [6] is: dose: 400.0 mg/kg/injection, schedule: Q04DX003 (ip), vehicle: saline.
Where [7] appears, read: dose: 100.0 mg/kg/injection, schedule: Q04DX002 (ip), vehicle: Klucel (hydroxypropylcellulose) (HPC).
Where [8] appears, read: dose: 200.0 mg/kg/injection, schedule: Q04DX002 (ip), vehicle: Klucel (hydroxypropylcellulose) (HPC).
[9] abbreviates: dose: 400.0 mg/kg/injection, schedule: Q04DX002 (ip), vehicle: Klucel (hydroxypropylcellulose) (HPC).
[10] abbreviates: dose: 60.0 mg/kg/injection, schedule: Q01DX005 (ip), vehicle: saline with Tween-80.
The mark [11] stands for this setting: dose: 120.0 mg/kg/injection, schedule: Q01DX005 (ip), vehicle: saline with Tween-80.
The mark [12] stands for this setting: dose: 240.0 mg/kg/injection, schedule: Q01DX005 (ip), vehicle: saline with Tween-80.
The mark [13] stands for this setting: dose: 25.0 mg/kg/injection, schedule: Q01DX009 (ip), vehicle: saline.
Where [14] appears, read: dose: 50.0 mg/kg/injection, schedule: Q01DX009 (ip), vehicle: saline.
Setting [15] is: dose: 100.0 mg/kg/injection, schedule: Q01DX009 (ip), vehicle: saline.
The mark [16] stands for this setting: dose: 200.0 mg/kg/injection, schedule: Q01DX009 (ip), vehicle: saline with Tween-80.
Where [17] appears, read: dose: 50.0 mg/kg/injection, schedule: Q01DX009 (ip), vehicle: saline with Tween-80.
[18] abbreviates: dose: 100.0 mg/kg/injection, schedule: Q01DX009 (ip), vehicle: saline with Tween-80.
Where [19] appears, read: dose: 50.0 mg/kg/injection, schedule: Q01DX005 (ip), vehicle: Klucel (hydroxypropylcellulose) (HPC).
Setting [20] is: dose: 100.0 mg/kg/injection, schedule: Q01DX005 (ip), vehicle: Klucel (hydroxypropylcellulose) (HPC).
[21] abbreviates: dose: 200.0 mg/kg/injection, schedule: Q01DX005 (ip), vehicle: Klucel (hydroxypropylcellulose) (HPC).

In the case of `COc1ccc(N=Cc2cccs2)cc1`, the T/C was 94 % of control under setting [1], 114 % of control under setting [2] and 105 % of control under setting [3].
`CCOC(=O)N(C)O`: the T/C (dose: 50.0 mg/kg/injection, schedule: Q01DX005 (ip), vehicle: saline with Tween-80) was 105 % of control; the T/C (dose: 100.0 mg/kg/injection, schedule: Q01DX005 (ip), vehicle: saline with Tween-80) was 107 % of control; the T/C (dose: 200.0 mg/kg/injection, schedule: Q01DX005 (ip), vehicle: saline with Tween-80) was 100 % of control; the T/C (dose: 400.0 mg/kg/injection, schedule: Q01DX005 (ip), vehicle: saline with Tween-80) was 100 % of control.
For `COc1nc(Nc2ccc(/C=C/c3ccc(Nc4nc(OC)nc(N(CCO)CCO)n4)cc3S(=O)(=O)O)c(S(=O)(=O)O)c2)nc(N(CCO)CCO)n1`, the T/C under setting [4] is 98 % of control, the T/C under setting [5] is 98 % of control and the T/C under setting [6] was 103 % of control.
For the molecule `COC(C)(C)c1cc(C(C)(C)C)cc2c1SOC2(C)C`, the T/C was 94 % of control under setting [7], 100 % of control under setting [8] and 114 % of control under setting [9].
Consider `O=[N+]([O-])c1cc(S(=O)(=O)O)cc([N+](=O)[O-])c1Cl`, for which the T/C reads like this: (dose: 25.0 mg/kg/injection, schedule: Q01DX009 (ip), vehicle: Klucel (hydroxypropylcellulose) (HPC)) 116 % of control; under setting [1], 114 % of control; under setting [2], 119 % of control.
With `Cc1c(-c2ccccc2)noc1-n1nnc2ccccc2c1=O`, the T/C by setting is: under setting [10], 100 % of control; under setting [11], 100 % of control; under setting [12], 89 % of control.
Turning to `NC(=S)N/N=C/c1c(-c2ccc(-c3ccccc3)cc2)nc2n1CCS2`, the T/C under setting [7] was 98 % of control, the T/C under setting [8] is 104 % of control and the T/C under setting [9] was 99 % of control.
Regarding `CC1(c2ccccc2)NC(=O)NC1=O` (configuration not stated), the T/C by setting is: (dose: 50.0 mg/kg/injection, schedule: Q01DX001 (ip), vehicle: saline) 100 % of control; (dose: 100.0 mg/kg/injection, schedule: Q01DX001 (ip), vehicle: saline) 110 % of control; (dose: 200.0 mg/kg/injection, schedule: Q01DX001 (ip), vehicle: saline) 115 % of control.
With `NC(CCS(=O)(=O)NCc1ccc(S(=O)(=O)F)cc1)C(=O)O` (configuration not stated), the T/C by setting is: (dose: 12.5 mg/kg/injection, schedule: Q01DX009 (ip), vehicle: other) 104 % of control; (dose: 25.0 mg/kg/injection, schedule: Q01DX009 (ip), vehicle: other) 103 % of control; (dose: 50.0 mg/kg/injection, schedule: Q01DX009 (ip), vehicle: other) 100 % of control; (dose: 100.0 mg/kg/injection, schedule: Q01DX009 (ip), vehicle: other) 96 % of control; (dose: 200.0 mg/kg/injection, schedule: Q01DX009 (ip), vehicle: other) 88 % of control.
For `O=c1[nH]cc(CS)c(=O)[nH]1`, the T/C runs as follows: (dose: 12.5 mg/kg/injection, schedule: Q01DX009 (ip), vehicle: saline) 102 % of control; under setting [13], 108 % of control; under setting [14], 100 % of control and 102 % of control; under setting [15], 103 % of control.
In the case of `Nc1cccc(SC2CC(=O)N(c3ccc4c(c3)OCO4)C2=O)c1` (configuration not stated), the T/C reads like this: (dose: 100.0 mg/kg/injection, schedule: Q04DX003 (ip), vehicle: Klucel (hydroxypropylcellulose) (HPC)) 92 % of control; (dose: 200.0 mg/kg/injection, schedule: Q04DX003 (ip), vehicle: Klucel (hydroxypropylcellulose) (HPC)) 101 % of control.
As to `CCCCN1C(=O)C2C3CCC(O3)C2C1=O` (configuration not stated), the T/C is 100 % of control under setting [10] and 92 % of control under setting [11].
As for `ClC(Cl)(Cl)SSC(=Nc1ccccc1)SSC(Cl)(Cl)Cl`, under setting [16], the T/C was 155 % of control.
For `COc1cccc2c1cc([N+](=O)[O-])c1c(C(=O)O)cc3c(c12)OCO3`, the T/C reads like this: (dose: 2.5 mg/kg/injection, schedule: Q01DX009 (ip), vehicle: Klucel (hydroxypropylcellulose) (HPC)) 118 % of control; (dose: 2.5 mg/kg/injection, schedule: Q01DX009 (ip), vehicle: saline) 108 % of control; (dose: 5.0 mg/kg/injection, schedule: Q01DX009 (ip), vehicle: Klucel (hydroxypropylcellulose) (HPC)) 118 % of control; (dose: 5.0 mg/kg/injection, schedule: Q01DX009 (ip), vehicle: saline) 117 % of control; (dose: 10.0 mg/kg/injection, schedule: Q01DX009 (ip), vehicle: saline) 117 % of control.
On to `CCOC(=O)NN(C(=O)OCC)C(=C(C1CCCCC1)N1CCOCC1)N(NC(=O)OCC)C(=O)OCC`, for which the T/C runs as follows: under setting [1], 95 % of control; under setting [2], 98 % of control; under setting [3], 94 % of control.
Regarding `CNC(=O)OC/C=C/c1ccccc1`, the T/C is, setting by setting: under setting [17], 99 % of control; under setting [18], 99 % of control; under setting [16], 92 % of control.
For the molecule `CCOC(=O)Nc1cc(Cl)c([N+](=O)[O-])c([N+](=O)[O-])n1`, the T/C was 101 % of control (dose: 100.0 mg/kg/injection, schedule: Q04DX002 (ip), vehicle: saline); 103 % of control (dose: 200.0 mg/kg/injection, schedule: Q04DX002 (ip), vehicle: saline); 110 % of control (dose: 400.0 mg/kg/injection, schedule: Q04DX002 (ip), vehicle: saline).
On to `Oc1cc2c(cc1C(c1ccc3c(c1)OCO3)N1CCN(C(c3ccc4c(c3)OCO4)c3cc4c(cc3O)OCO4)CC1)OCO2` (configuration not stated), for which the T/C runs as follows: under setting [10], 89 % of control; under setting [11], 87 % of control; under setting [12], 89 % of control.
Consider `O=C1OC(C(O)CO)C(O)C1O` (configuration not stated), for which the T/C is, setting by setting: under setting [19], 99 % of control; (dose: 50.0 mg/kg/injection, schedule: Q01DX005 (ip), vehicle: saline) 94 % of control and 109 % of control and 102 % of control; under setting [20], 97 % of control; (dose: 100.0 mg/kg/injection, schedule: Q01DX005 (ip), vehicle: saline) 96 % of control and 105 % of control and 98 % of control; under setting [21], 101 % of control; (dose: 200.0 mg/kg/injection, schedule: Q01DX005 (ip), vehicle: saline) 96 % of control and 105 % of control.
Regarding `c1ccc2c(-c3ccc(N4CCOCC4)cc3)c3ccc4ccccc4c3cc2c1`, the T/C under setting [19] is 91 % of control, the T/C under setting [20] is 92 % of control and the T/C under setting [21] is 99 % of control.
For `CN1C(=O)NC(C)(c2cccc(N(CCCl)CCCl)c2)C1=O` (configuration not stated), the T/C under setting [1] is 158 % of control; the T/C under setting [2] was 177 % of control; the T/C under setting [3] is 160 % of control and 205 % of control.
On to `CC(=O)c1c(-c2ccccc2)noc1-c1ccccc1`, for which the T/C is 102 % of control under setting [4], 102 % of control under setting [5] and 101 % of control under setting [6].
For `O=S1(=O)CCC(N2CCCCC2)C1` (configuration not stated), the T/C was 102 % of control under setting [13]; 94 % of control under setting [14]; 104 % of control under setting [15]; 98 % of control (dose: 200.0 mg/kg/injection, schedule: Q01DX009 (ip), vehicle: saline).
Regarding `c1ccc2c(c1)nc1n2CC2(CS1)CSc1nc3ccccc3n1C2`, the T/C is 88 % of control under setting [17] and 91 % of control under setting [18].
As to `Nc1ncnc2c1ncn2C1SC(CO)C(O)C1O` (configuration not stated), the T/C is 92 % of control (dose: 12.5 mg/kg/injection, schedule: Q01DX005 (ip), vehicle: Klucel (hydroxypropylcellulose) (HPC)); 100 % of control and 92 % of control (dose: 25.0 mg/kg/injection, schedule: Q01DX005 (ip), vehicle: Klucel (hydroxypropylcellulose) (HPC)); 99 % of control and 96 % of control under setting [19]; 104 % of control and 100 % of control under setting [20]; 101 % of control and 92 % of control under setting [21].
